Assay results taken from patent US10513697B2, “CO2 profile cultivation” (Hoffmann-La Roche Inc., priority 2011, dated 2019).

Assays:
[1] = test system: hCAII-expressing CHO cell clone E11; assay: Re-alkalinization experiment (pHi recovery after CO2 acid load, flow cytometry) in hCAII-expressing clone; format: cell-based, Chinese Hamster
Method: pHi measurements were carried out by flow cytometry with the available pHi fluorescent indicator, Carboxy SNARF-1 AM (Molecular Probes Inc.). This dye is an acetoxymethyl (AM) ester that enter the cells readily and is hydrolyzed by non-specific esterases to yield the free fluorescent dye. SNARF-1 AM is very sensitive to pHi changes within the physiological range. It is excited between 488 nm and 530 nm and the fluorescence emission is monitored at two wavelengths, typically about 580 nm (FL2-H) and 640 nm (FL3-H). This is particularly interesting as the fluorescence emission wavelength ratio can be calculated foe a more accurate determination of the pHi. […] Herein the Pseudo-Null calibration method was used. […] A simplification can be considered if the calibration solutions are prepared in such a way that a concentration of weak base and a concentration of weak acid produce an equal but opposite change in pHi (i.e., pHa=pHb). The derived relationship for pHi determination is presented in Equation 10.11.
Syringe A contained stained cells in bicarbonate-free production medium and syringe B production medium with 4.2 g/l NaHCO3 (corresponding to 25% CO2 at pH 7.2). Both media contained 20 mM HEPES and were adjusted to pH 7.2 at 37° C. Acid-load was achieved by pressing bicarbonate-containing medium from syringe B into syringe A. A 5 ml syringe was pre-loaded with 22 μl of SNARF-1 AM (2 mM stock solution; Table 3). 1×10^6 cells, from the exponential phase, were harvested and washed once with 4 ml medium without bicarbonate. After which, the cell suspension was sucked (without air bubbles) into the pre-loaded fluorescence dye syringe, which was them closed with the Luer-stopper and gently mixed. After a 25 min. period of incubation at 37° C. in the dark, with regularly mixing to avoid cell settling, followed dissolved gas and flow cytometric analysis. Three measurements of loaded cells in bicarbonate-free medium were made before acidification of cells cytoplasm. Afterwards, the syringe B was connected to syringe A and the double volume of NaHCO3-containing medium was added. The syringe B was discarded, syringe A was closed and after short mixing, the acid-loaded cells were analyzed by flow cytometry. Additionally, some samples were measured with the blood gas analyzer to determine the content of CO2 in medium during the experiment.
To test if the re-alkalinization effect was due to the hCAII-overexpression, the hCAII inhibitor ethoxyzolamide (ACTZ) was used. […]

[2] = test system: control cell line in HyQ medium (Control HyQ, non-transfected CHO cell line); assay: Re-alkalinization experiment (pHi recovery after CO2 acid load, flow cytometry) in control cell line; format: cell-based, Chinese Hamster
Method: To examine the effect of hCAII expression on the cell internal pH value (pHi), the control cell line in HyQ medium and clone E11 were submitted to a short term acidification. This was achieved by mixing the cells with a CO2-containing solution and measuring the subsequent pHi recovery. […] A replicate of this experiment was performed with the carbonic anhydrase II inhibitor ethoxyzolamide and the results are presented in FIGS. 7(A) and 7(B). […] The following Table summarizes some of the characteristics of the tested cell lines.
pHi measurements were carried out by flow cytometry with the available pHi fluorescent indicator, Carboxy SNARF-1 AM (Molecular Probes Inc.). This dye is an acetoxymethyl (AM) ester that enter the cells readily and is hydrolyzed by non-specific esterases to yield the free fluorescent dye. SNARF-1 AM is very sensitive to pHi changes within the physiological range. It is excited between 488 nm and 530 nm and the fluorescence emission is monitored at two wavelengths, typically about 580 nm (FL2-H) and 640 nm (FL3-H). This is particularly interesting as the fluorescence emission wavelength ratio can be calculated foe a more accurate determination of the pHi. With the use of this ratiometric technique, a number of fluorescence measurement artifacts are eliminated, such as photobleaching, cell thickness and leakage and non-uniform loading of the indicator (SNARF® pH indicators, Product information, 2003, Molecular Probes Inc.). Herein the Pseudo-Null calibration method was used. […] A simplification can be considered if the calibration solutions are prepared in such a way that a concentration of weak base and a concentration of weak acid produce an equal but opposite change in pHi (i.e., pHa=pHb). The derived relationship for pHi determination is presented in Equation 10.11.
The regulation of the pHi was studied by flow cytometric analysis during intracellular acidification with bicarbonate. The kinetic of the transporters were examined. This test was made at physiological conditions. Therefore medium was used instead of buffer to account for influences of other medium components. To eliminate the activity of other cellular pHi-regulation systems, cells were pre-incubated in bicarbonate-free medium buffered with HEPES. […] This system consisting of two disposable 5 ml Luer-Lock syringes (B. Braun AG, Melsungen, Germany) connected by a short tubing and two Luer tubing connectors (Rotilabo®). These Luer connectors permitted the rapid and easy connection/disconnection of the 2 syringes.
Syringe A contained stained cells in bicarbonate-free production medium and syringe B production medium with 4.2 g/l NaHCO3 (corresponding to […] at pH 7.2). Both media contained 20 mM HEPES and were adjusted to pH 7.2 at 37° C. Acid-load was achieved by pressing bicarbonate-containing medium from syringe B into syringe A. A 5 ml syringe was pre-loaded with 22 μl of SNARF-1 AM (2 mM stock solution; Table 3). 1×10^6 cells, from the exponential phase, were harvested and washed once with 4 ml medium without bicarbonate. After which, the cell suspension was sucked (without air bubbles) into the pre-loaded fluorescence dye syringe, which was them closed with the Luer-stopper and gently mixed. […] The syringe B was discarded, syringe A was closed and after short mixing, the acid-loaded cells were analyzed by flow cytometry. Additionally, some samples were measured with the blood gas analyzer to determine the content of CO2 in medium during the experiment. […]

## CCOc1ccc2nc(S(N)(=O)=O)sc2c1 [ACTZ, ethoxyzolamide]
[1]; Clone E11 + ACTZ, 100 μM ethoxyzolamide in media, pHe 7.11
  Steady state pHi: 6.87
[1]; Clone E11 + ACTZ, 100 μM ethoxyzolamide, about 9% CO2 acid load
  pHi (acid load): 6.61
[1]; Clone E11 + ACTZ, 100 μM ethoxyzolamide, initial recovery rate of first 5 min after acid load
  pHi/min (5 min): 0.057 pHi/min
[1]; clone E11, in the presence of the inhibitor
  decrease on the re-alkalinization rate: 19%
[1]; hCAII inhibited reaction, clone E11 (8 min. without inhibitor)
  time after exposure to CO2-containing medium at which steady state pHi was exceeded: 5 min.
[2]; Control HyQ + ACTZ, 100 μM ethoxyzolamide in media, pHe 7.10
  Steady state pHi: 7.02
[2]; Control HyQ + ACTZ, 100 μM ethoxyzolamide, about 9% CO2 acid load
  pHi (acid load): 6.84
[2]; Control HyQ + ACTZ, 100 μM ethoxyzolamide, initial recovery rate of first 5 min after acid load
  pHi/min (5 min): 0.049 pHi/min
[2]; control cell line in HyQ medium, in the presence of the inhibitor
  decrease on the re-alkalinization rate: 30%
[2]; hCAII inhibited reaction, control cell line in HyQ medium (11 min. without inhibitor)
  time after exposure to CO2-containing medium at which steady state pHi was exceeded: 5 min.
